Reference: ChEMBL document CHEMBL5532720, “A Potent Solution for Tumor Growth and Angiogenesis Suppression via an ELR+CXCL-CXCR1/2 Pathway Inhibitor” (ACS Med Chem Lett, 2024)
pIC50: −log10 of the molar value. Converted amounts (≈) assume the structure as drawn. The source made the active and inactive calls. The calls are words filed in the database; no cut-off is given here.

Key:
[1] = Stability in human hepatocytes assessed as intrinsic clearance measured per 10^6 cells; type: ADME, cell-based, Hepatocyte; settings: read-out: CLH
[2] = Antiproliferative activity against human Cisplatin and radiotherapy resistant CAL33RR cells incubated for 48 hrs by XTT assay; type: functional, cell-based
[3] = biological target: Ephrin type-B receptor 4 (Homo sapiens) (UniProt P54760); test: Inhibition of EPHB4 (unknown origin) at 10 uM in presence of ATP at Km concentration
[4] = Cmax in NOD SCID mouse at 200 mg/kg, po; type: ADME, organism-based; settings: in vivo
786-0 = test: Antiproliferative activity against human 786-0 cells incubated for 48 hrs by XTT assay; type: functional, cell-based; settings: 786-0, 48 h
A498 [5] = test: Inhibition of CXCL5 secretion in human A498 cells at 1 to 2.5 uM incubated for 48 hrs by ELISA; type: functional, cell-based; settings: dose 1-2.5 µM
[6] = biological target: Vascular endothelial growth factor receptor 2 (Homo sapiens) (UniProt P35968); test: Inhibition of KDR (unknown origin) at 10 uM in presence of ATP at Km concentration
Chain of Vascular endothelial growth factor receptor 2 (Homo sapiens) (P35968 whole entry): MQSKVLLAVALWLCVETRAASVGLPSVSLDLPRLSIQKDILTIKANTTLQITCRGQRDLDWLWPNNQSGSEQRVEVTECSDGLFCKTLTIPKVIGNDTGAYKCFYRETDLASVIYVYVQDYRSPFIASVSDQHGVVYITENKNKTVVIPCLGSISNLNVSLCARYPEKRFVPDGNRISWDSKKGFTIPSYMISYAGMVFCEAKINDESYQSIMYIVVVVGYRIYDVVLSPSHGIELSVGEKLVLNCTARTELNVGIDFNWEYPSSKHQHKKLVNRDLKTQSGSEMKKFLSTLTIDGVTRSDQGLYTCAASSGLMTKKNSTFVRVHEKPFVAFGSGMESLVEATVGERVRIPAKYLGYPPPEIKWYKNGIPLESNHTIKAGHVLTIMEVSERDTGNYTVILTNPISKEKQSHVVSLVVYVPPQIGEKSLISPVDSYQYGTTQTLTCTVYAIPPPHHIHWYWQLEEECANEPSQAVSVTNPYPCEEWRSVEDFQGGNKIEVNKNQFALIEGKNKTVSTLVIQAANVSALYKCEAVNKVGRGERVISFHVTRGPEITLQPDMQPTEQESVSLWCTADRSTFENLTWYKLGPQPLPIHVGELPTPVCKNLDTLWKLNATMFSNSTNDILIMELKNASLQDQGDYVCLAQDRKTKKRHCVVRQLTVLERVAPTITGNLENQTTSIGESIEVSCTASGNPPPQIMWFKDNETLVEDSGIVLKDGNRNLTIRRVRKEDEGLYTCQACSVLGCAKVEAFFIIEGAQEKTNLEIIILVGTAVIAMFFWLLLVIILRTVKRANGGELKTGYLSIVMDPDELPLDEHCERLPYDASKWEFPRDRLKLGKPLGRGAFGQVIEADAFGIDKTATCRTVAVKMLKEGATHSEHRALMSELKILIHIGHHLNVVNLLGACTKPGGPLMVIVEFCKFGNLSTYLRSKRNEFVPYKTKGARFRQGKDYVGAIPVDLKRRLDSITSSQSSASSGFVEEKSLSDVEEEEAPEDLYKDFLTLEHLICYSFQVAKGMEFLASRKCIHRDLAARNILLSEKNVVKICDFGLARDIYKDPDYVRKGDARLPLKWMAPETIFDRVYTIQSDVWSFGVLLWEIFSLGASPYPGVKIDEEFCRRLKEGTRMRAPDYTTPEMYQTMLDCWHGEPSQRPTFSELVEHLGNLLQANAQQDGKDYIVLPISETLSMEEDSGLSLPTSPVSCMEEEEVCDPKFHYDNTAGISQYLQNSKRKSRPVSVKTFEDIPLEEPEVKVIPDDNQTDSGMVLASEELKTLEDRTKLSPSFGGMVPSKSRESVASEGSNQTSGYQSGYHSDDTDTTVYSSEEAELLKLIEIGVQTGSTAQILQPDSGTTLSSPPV

[7] = biological target: Protein kinase C eta type (Homo sapiens) (UniProt P24723); test: Inhibition of PRKCH (unknown origin) at 10 uM in presence of ATP at Km concentration
[8] = biological target: Mitogen-activated protein kinase kinase kinase 20 (Homo sapiens) (UniProt Q9NYL2); test: Inhibition of ZAK (unknown origin) at 10 uM in presence of ATP at Km concentration
[9] = Cmax in NOD SCID mouse at 100 mg/kg, po; type: ADME, organism-based; settings: in vivo
[10] = biological target: Ribosomal protein S6 kinase alpha-2 (Homo sapiens) (UniProt Q15349); test: Inhibition of RPS6KA2 (unknown origin) at 10 uM in presence of ATP at Km concentration
[11] = Half-life in NOD SCID mouse at 200 mg/kg, po; type: ADME, organism-based; settings: in vivo
[12] = biological target: Serine/threonine-protein kinase tousled-like 2 (Homo sapiens) (UniProt Q86UE8); test: Inhibition of TLK2 (unknown origin) at 10 uM in presence of ATP at Km concentration
Chain of Serine/threonine-protein kinase tousled-like 2 (Homo sapiens) (Q86UE8 whole entry, looked up): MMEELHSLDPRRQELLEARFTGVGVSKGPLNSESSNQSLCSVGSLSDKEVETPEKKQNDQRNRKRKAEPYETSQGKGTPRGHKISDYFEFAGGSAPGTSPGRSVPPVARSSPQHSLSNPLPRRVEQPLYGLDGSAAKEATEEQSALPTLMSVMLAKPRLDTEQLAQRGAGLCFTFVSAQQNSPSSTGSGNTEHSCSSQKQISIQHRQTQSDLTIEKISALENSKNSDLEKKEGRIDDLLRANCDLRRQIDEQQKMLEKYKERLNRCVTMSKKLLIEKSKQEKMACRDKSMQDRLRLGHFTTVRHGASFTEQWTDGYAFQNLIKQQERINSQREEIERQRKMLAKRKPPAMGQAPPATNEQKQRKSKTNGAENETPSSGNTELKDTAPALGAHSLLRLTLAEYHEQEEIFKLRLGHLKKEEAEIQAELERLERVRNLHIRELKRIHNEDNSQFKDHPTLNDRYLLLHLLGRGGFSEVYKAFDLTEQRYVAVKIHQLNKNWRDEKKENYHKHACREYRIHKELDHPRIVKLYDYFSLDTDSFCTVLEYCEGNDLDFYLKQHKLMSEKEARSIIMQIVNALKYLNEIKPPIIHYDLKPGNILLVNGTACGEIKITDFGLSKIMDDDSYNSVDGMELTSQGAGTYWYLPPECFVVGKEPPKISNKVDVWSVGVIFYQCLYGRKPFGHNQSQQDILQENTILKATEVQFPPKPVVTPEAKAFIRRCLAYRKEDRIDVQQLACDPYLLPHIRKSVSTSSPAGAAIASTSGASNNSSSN

[13] = Stability in human hepatocytes assessed as half-life; type: ADME, cell-based, Hepatocyte
[14] = biological target: G protein-coupled receptor kinase 5 (Homo sapiens) (UniProt P34947); test: Inhibition of GRK5 (unknown origin) at 10 uM in presence of ATP at Km concentration
[15] = biological target: Serine/threonine-protein kinase N2 (Homo sapiens) (UniProt Q16513); test: Inhibition of PKN2 (unknown origin) at 10 uM in presence of ATP at Km concentration
Chain of Serine/threonine-protein kinase N2 (Homo sapiens) (Q16513 whole entry, looked up): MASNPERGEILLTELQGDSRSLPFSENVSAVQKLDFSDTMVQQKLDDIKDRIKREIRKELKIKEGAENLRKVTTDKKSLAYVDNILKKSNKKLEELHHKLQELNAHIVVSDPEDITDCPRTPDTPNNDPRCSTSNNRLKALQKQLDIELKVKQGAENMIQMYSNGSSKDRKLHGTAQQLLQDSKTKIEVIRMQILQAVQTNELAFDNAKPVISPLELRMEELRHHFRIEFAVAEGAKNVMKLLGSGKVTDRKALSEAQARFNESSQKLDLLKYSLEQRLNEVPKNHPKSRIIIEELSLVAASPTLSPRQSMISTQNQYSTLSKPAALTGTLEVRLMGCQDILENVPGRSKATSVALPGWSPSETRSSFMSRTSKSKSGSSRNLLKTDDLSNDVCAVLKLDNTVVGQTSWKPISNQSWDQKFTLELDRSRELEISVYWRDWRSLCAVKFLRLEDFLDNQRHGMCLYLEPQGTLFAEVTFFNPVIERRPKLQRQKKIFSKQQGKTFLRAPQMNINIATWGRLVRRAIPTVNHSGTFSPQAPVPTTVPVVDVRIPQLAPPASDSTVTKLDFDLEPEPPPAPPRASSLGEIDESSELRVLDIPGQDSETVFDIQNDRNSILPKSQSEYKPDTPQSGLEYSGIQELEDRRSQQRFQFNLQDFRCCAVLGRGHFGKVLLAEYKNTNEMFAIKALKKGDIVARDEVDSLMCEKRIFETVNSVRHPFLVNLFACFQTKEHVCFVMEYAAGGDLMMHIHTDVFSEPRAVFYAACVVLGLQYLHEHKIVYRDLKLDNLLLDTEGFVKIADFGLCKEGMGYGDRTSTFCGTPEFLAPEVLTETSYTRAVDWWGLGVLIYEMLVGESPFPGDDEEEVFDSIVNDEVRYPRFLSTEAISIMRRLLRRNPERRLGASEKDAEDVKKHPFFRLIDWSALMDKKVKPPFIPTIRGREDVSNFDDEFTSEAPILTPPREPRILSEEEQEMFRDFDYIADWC

[16] = test system: Cisplatin and radiotherapy resistant CAL33RR; test: Inhibition of cell invasion in human Cisplatin and radiotherapy resistant CAL33RR cells cultured as 3D spheroid at 5 uM measured after 7 days by light microscopic imaging analysis; type: functional, cell-based; settings: time 7.0 day
[17] = Genotoxicity in Salmonella typhimurium TA98 upto 100 uM in absence of S9 fraction by Ames test; type: toxicity; settings: salmonella enterica subsp. enterica serovar typhimurium, s9, 100 µM
[18] = Stability in human plasma assessed as half-life; type: ADME, cell-free
A498 [19] = test: Inhibition of CXCL1 secretion in human A498 cells at 1 to 2.5 uM incubated for 48 hrs by ELISA; type: functional, cell-based; settings: dose 1-2.5 µM
[20] = C0 in NOD SCID mouse at 1 mg/kg, iv; type: ADME, organism-based; settings: in vivo
[21] = Genotoxicity in Salmonella typhimurium TA98 upto 100 uM in presence of S9 fraction by Ames test; type: toxicity, subcellular; settings: salmonella enterica subsp. enterica serovar typhimurium, s9, 100 µM
[22] = Volume of distribution in NOD SCID mouse at 1 mg/kg, iv; type: ADME, organism-based; settings: in vivo
[23] = biological target: Eukaryotic elongation factor 2 kinase (Homo sapiens) (UniProt O00418); test: Inhibition of EEF2K (unknown origin) at 10 uM in presence of ATP at Km concentration
Chain of Eukaryotic elongation factor 2 kinase (Homo sapiens) (O00418 whole entry): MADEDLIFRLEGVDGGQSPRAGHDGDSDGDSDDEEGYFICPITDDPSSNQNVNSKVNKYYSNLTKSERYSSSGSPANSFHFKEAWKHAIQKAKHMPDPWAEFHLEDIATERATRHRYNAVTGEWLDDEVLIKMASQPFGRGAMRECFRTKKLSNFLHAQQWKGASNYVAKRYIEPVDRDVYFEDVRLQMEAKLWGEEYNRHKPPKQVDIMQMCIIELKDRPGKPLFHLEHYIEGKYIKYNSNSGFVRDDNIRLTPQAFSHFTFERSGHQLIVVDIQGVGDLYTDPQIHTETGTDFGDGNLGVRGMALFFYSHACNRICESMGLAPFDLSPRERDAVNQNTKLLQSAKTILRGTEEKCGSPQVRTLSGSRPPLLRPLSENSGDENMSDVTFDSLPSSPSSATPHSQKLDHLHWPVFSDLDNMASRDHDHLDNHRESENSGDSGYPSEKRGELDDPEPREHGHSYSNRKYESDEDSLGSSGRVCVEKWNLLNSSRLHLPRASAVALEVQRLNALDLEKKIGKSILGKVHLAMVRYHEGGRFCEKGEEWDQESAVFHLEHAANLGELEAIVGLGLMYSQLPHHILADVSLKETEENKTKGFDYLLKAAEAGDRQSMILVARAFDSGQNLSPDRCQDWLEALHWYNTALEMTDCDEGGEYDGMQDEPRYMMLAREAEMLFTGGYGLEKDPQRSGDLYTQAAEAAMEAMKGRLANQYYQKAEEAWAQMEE

[24] = Oral bioavailability in NOD SCID mouse at 50 mg/kg; type: ADME, organism-based; settings: in vivo
[25] = Stability of compound at pH 12 measured after 24 hrs; type: physicochemical; settings: buffer, pH 12, 24 h
[26] = Genotoxicity in Salmonella typhimurium TA100 upto 100 uM in presence of S9 fraction by Ames test; type: toxicity, subcellular; settings: salmonella enterica subsp. enterica serovar typhimurium, s9, 100 µM
[27] = Genotoxicity in Salmonella typhimurium TA1537 upto 100 uM in presence of S9 fraction by Ames test; type: toxicity, subcellular; settings: salmonella enterica subsp. enterica serovar typhimurium, s9, 100 µM
[28] = biological target: Mitogen-activated protein kinase kinase kinase kinase 4 (Homo sapiens) (UniProt O95819); test: Inhibition of MAP4K4 (unknown origin) at 10 uM in presence of ATP at Km concentration
Chain of Mitogen-activated protein kinase kinase kinase kinase 4 (Homo sapiens) (O95819 2-1239 limits assumed): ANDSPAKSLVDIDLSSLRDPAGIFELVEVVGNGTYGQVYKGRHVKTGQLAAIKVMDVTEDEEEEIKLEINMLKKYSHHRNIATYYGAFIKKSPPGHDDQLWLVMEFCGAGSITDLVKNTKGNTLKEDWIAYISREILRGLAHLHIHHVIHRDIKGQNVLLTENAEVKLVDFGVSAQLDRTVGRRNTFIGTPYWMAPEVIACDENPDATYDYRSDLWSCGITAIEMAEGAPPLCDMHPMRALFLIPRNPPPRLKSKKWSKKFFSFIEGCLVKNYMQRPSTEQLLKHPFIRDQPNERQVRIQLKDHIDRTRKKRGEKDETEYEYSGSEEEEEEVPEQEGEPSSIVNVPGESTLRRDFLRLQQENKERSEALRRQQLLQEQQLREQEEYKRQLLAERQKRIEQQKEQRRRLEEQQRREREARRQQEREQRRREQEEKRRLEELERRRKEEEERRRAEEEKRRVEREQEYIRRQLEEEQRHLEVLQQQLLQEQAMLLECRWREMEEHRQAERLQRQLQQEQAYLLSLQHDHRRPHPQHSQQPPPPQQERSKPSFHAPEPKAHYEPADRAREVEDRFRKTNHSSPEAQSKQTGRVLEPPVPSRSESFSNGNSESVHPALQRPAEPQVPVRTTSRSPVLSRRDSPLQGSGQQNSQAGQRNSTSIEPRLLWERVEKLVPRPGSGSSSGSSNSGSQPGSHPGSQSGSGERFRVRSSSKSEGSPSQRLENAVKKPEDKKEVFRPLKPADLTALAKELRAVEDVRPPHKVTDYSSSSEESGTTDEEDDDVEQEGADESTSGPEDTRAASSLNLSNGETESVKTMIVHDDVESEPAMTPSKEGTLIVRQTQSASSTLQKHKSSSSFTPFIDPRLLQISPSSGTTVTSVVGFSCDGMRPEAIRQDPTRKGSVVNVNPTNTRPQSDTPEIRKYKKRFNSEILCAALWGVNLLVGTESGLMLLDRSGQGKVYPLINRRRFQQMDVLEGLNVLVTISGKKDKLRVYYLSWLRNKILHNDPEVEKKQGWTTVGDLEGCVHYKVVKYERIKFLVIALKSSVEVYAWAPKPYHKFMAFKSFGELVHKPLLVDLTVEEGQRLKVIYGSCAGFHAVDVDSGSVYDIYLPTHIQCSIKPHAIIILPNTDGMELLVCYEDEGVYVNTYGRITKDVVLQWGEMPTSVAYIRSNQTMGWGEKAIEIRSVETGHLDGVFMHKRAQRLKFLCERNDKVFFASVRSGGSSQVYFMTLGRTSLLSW

[29] = Stability in mouse hepatocytes assessed as intrinsic clearance measured per 10^6 cells; type: ADME, cell-based, Hepatocyte; settings: read-out: CLH
[30] = biological target: Tyrosine-protein kinase Fyn (Homo sapiens) (UniProt P06241); test: Inhibition of FYN (unknown origin) at 10 uM in presence of ATP at Km concentration
[31] = biological target: Mitogen-activated protein kinase 15 (Homo sapiens) (UniProt Q8TD08); test: Inhibition of MAPK15 (unknown origin) at 10 uM in presence of ATP at Km concentration
[32] = Aqueous solubility of compound in SGF at pH 2; type: ADME
[33] = Stability in mouse microsomes assessed as compound remaining measured after 1 hrs; type: ADME, Microsome; settings: read-out: Stability
[34] = biological target: Interleukin-8 receptors, CXCR1/CXCR2 (Homo sapiens) (UniProt P25025+P25024); test: Inhibition of CXCR1/2 pathway in human A498 cells assessed as reduction in AKT phosphorylation at 2.5 uM incubated for 24 to 48 hrs by immunoblot analysis; type: functional, cell-based; settings: time 24-48 hrs
[35] = biological target: Glycogen synthase kinase-3 beta (Homo sapiens) (UniProt P49841); test: Inhibition of GSK3B (unknown origin) at 10 uM in presence of ATP at Km concentration
[36] = Protein binding in human plasma; type: ADME, cell-free; settings: read-out: PPB (converted)
[37] = biological target: Tyrosine-protein kinase Yes (Homo sapiens) (UniProt P07947); test: Inhibition of YES1 (unknown origin) at 10 uM in presence of ATP at Km concentration
TIME = test: Antiangiogenic activity in human TIME cells assessed as disruption of blood vessel network at 2.5 uM incubated for 24 hrs; type: functional, cell-based
[38] = biological target: Inactive tyrosine-protein kinase PEAK1 (Homo sapiens) (UniProt Q9H792); test: Inhibition of PEAK1 (unknown origin) at 10 uM in presence of ATP at Km concentration
RCC4 = test: Antiproliferative activity against human RCC4 cells incubated for 48 hrs by XTT assay; type: functional, cell-based; settings: RCC4, 48 h
[39] = Cmax in NOD SCID mouse at 50 mg/kg, po; type: ADME, organism-based; settings: in vivo
[40] = Toxicity in athymic nude mouse xenografted with human 786-0 cells assessed as discernible signs at 100 mg/kg, po administered twice daily via gavage for 28 days; type: organism-based; settings: in vivo, 672 h, time 28 day
A498 [41] = test: Antimetastatic activity against human A498 cells labeled with vybrant DiD cell-labeling solution xenografted in zebrafish embryo assessed as fold reduction in metastasis area at 1 uM pre-infected with cells for 24 hrs followed by compound addition and measured after 48 hrs by fluorescence microscopic imaging analysis; type: functional

hepatocyte CLint [1]: 35.9 µL/min/1e6 cells | inhibition [3]: inactive | Cmax [4]: 5.2 µM | pIC50 (786-0): 5.60 | inhibition [6]: inactive | inhibition [7]: inactive | inhibition [8]: inactive | Cmax [9]: 2.8 µM | inhibition [10]: inactive | half-life [11]: 2.7 h | inhibition [12]: inactive | half-life [13]: 0.643 h | inhibition [14]: inactive | inhibition [15]: inactive | half-life [18]: > 4.82 h | C0 [20]: 3.6 µM | Vd [22]: 1 L/kg | inhibition [23]: inactive | bioavailability [24]: 39% | Stability [25]: Stable | inhibition [28]: inactive | hepatocyte CLint [29]: 65.8 µL/min/1e6 cells | inhibition [30]: inactive | solubility [32]: 3.4 µM (≈ 1.3 µg/mL) | remaining at 1 h [33]: 76% | inhibition [34]: Active | inhibition [35]: inactive | fraction unbound [36]: 0.004 | inhibition [37]: inactive | inhibition [38]: inactive | Cmax [39]: 2 µM
Compound: O=C(Nc1cc(Cl)cc(Cl)c1)Nc1nc2ccc([N+](=O)[O-])cc2s1
pIC50 [2]: 5.40 | inhibition (A498 [5]): Active | inhibition [16]: Active | Activity [17]: Non-Toxic | inhibition (A498 [19]): Active | Activity [21]: Non-Toxic | Activity [26]: Non-Toxic | Activity [27]: Non-Toxic | inhibition [31]: inactive | Activity (TIME): Active | pIC50 (RCC4): 5.70 | Activity [40]: Non-Toxic | fold change (FC) (A498 [41]): ~4
